Laboratory results from patent US12281122B1, “PI3K inhibitors” (Cogent Biosciences, Inc., priority 2023, dated 2025).

Tests used:
[1] = system: T47D (PI3Kα-H1047R) cell line; test: HTRF phospho-AKT(S473) cell assay in T47D cells; type: cell-based, human; conditions: Homo sapiens; T47D (PI3Kα-H1047R) cells, HTRF phospho-AKT(S473), 2 hours compound incubation
How it was run: (§1)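 T47D (PI3Kα-H1047R; RPMI, 10% FBS, insulin) and SKBR3 (wild-type PI3Kα; McCoy's 5A, 10% FBS) cells treated 2 h at 37 °C with 12-point 1:3 dilutions, top 5 μM and 10 μM respectively, ≤0.5% DMSO. SKBR3 stimulated with 70 ng/ml PDGF-BB for the last 15 min; lysate pAKT(S473) by HTRF, IC50 from curves.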

[2] = system: SKBR3 (PI3Kα-Wild Type) cell line; test: HTRF phospho-AKT(S473) cell assay in SKBR3 cells; type: cell-based, human; conditions: Homo sapiens, SK-BR-3; SKBR3 (PI3Kα-Wild Type) cells, HTRF phospho-AKT(S473), 2 hours compound incubation, PDGF-BB stimulated
How it was run: as §1

PI3Kα = PI3Kα (Homo sapiens, UniProt P42336); test: PI3Kα enzyme assay (Transcreener ADP2 TR-FRET Red Assay); type: biochemical; conditions: purified recombinant full-length protein; 2 hours pre-incubation with compound; read-out: PI3Kα WT IC50
How it was run: (§2)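 Purified recombinant full-length enzymes pre-incubated 2 h at room temperature with compounds (11-point 1:3 dilutions, typically 50,000–0.85 nM), then started with ATP/PI(4,5)P2 diC8 and run 60 min at room temperature in 40 mM HEPES pH 7.5, 20 mM NaCl, 25 mM MgCl2, 0.01% Triton X-100. ADP detected by TR-FRET 665/615 ratio; IC50 from four-parameter fit of percent of control.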

PI3Kα H1047R = PI3Kα H1047R (Homo sapiens, UniProt P42336, H1047R); test: PI3Kα H1047R enzyme assay (Transcreener ADP2 TR-FRET Red Assay); type: biochemical; conditions: purified recombinant full-length protein; 2 hours pre-incubation with compound
How it was run: as §2

PI3Kα, sequence (P42336 whole entry): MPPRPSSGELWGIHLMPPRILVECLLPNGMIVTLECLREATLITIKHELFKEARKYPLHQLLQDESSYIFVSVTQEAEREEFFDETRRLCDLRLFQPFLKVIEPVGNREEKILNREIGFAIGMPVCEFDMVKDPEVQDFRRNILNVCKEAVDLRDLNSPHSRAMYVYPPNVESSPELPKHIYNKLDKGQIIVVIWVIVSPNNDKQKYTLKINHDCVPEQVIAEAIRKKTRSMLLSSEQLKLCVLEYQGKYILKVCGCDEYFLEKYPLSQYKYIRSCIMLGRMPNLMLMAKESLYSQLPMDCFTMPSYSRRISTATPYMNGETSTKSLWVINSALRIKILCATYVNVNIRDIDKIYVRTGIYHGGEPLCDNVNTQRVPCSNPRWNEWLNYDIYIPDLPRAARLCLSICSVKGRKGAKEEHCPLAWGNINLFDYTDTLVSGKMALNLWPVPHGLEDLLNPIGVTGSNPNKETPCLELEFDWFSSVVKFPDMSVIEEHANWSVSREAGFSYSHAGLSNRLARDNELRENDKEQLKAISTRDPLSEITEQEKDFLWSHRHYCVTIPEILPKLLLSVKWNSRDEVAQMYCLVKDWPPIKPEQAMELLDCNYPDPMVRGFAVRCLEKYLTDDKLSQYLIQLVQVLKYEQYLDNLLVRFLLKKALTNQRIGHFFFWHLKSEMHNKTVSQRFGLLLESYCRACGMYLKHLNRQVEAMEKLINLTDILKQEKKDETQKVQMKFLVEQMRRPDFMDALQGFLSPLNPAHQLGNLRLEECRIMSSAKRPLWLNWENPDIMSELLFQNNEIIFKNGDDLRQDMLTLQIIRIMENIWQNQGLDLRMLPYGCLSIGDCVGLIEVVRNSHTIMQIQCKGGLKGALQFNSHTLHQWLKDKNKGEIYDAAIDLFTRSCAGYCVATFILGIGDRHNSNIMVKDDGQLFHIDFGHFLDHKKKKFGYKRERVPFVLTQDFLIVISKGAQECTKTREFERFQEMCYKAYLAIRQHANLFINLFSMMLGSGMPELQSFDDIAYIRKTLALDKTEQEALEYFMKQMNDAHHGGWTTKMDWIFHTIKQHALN
PI3Kα, sequence (P27986 2-724 partner): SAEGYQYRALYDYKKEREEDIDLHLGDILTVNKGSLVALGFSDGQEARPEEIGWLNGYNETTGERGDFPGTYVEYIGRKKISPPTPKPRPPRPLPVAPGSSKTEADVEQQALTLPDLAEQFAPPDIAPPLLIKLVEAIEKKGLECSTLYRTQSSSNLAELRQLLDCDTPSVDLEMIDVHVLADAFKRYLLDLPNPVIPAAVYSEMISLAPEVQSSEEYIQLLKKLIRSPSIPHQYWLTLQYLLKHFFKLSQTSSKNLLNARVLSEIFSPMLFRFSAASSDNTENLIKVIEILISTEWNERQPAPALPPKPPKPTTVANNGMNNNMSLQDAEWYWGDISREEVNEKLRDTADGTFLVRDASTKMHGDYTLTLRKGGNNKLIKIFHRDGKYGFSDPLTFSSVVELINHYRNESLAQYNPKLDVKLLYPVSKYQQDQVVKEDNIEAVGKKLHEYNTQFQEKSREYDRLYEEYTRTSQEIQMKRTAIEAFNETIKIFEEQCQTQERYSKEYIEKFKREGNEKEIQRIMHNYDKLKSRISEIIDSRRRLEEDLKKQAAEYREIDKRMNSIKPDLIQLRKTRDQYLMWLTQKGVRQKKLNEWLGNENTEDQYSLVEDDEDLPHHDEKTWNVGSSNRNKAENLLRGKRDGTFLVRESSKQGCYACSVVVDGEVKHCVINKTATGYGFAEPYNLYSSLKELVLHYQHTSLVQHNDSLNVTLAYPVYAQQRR
PI3Kα H1047R, sequence (P42336 whole entry H1047R): as the sequence (P42336 whole entry) above, with H1047R counted along it
PI3Kα H1047R, sequence (P27986 2-724 partner): as the sequence (P27986 2-724 partner) above

Row | Compound | IC50 [1] | IC50 [2] | IC50 (PI3Kα) | IC50 (PI3Kα H1047R)
1 | Cc1cc([C@@H](C)Nc2ccc(Cl)nc2C(=O)NS(C)(=O)=O)c2nc(N3CCC4(CCOCC4)C3)n(C)c(=O)c2c1 [Compound 33, (R)-6-chloro-3-((1-(3,6-dimethyl-4-oxo-2-(8-oxa-2-azaspiro[4.5]decan-2-yl)-3,4-dihydroquinazolin-8-yl)ethyl)amino)-N-(methylsulfonyl) picolinamide] | 250 to 500 nM | 1000 to 5000 nM | ≥ 1000 nM | 250 to 500 nM
2 | Cc1cc([C@@H](C)Nc2ccc(Cl)nc2C(=O)NS(C)(=O)=O)c2nc(NCC(F)(F)F)n(C)c(=O)c2c1 [Compound 34, (R)-6-chloro-3-((1-(3,6-dimethyl-4-oxo-2-((2,2,2-trifluoroethyl)amino)-3,4-dihydroquinazolin-8-yl)ethyl)amino)-N-(methylsulfonyl) picolinamide] | 250 to 500 nM | 1000 to 5000 nM | ≥ 1000 nM | 500 to 1000 nM
3 | Cc1cc([C@@H](C)Nc2cc(C)c(Cl)nc2C(=O)NS(C)(=O)=O)c2nc(N3Cc4ccc(F)cc4C3)n(C)c(=O)c2c1 [Compound 35, (R)-6-chloro-3-((1-(2-(5-fluoroisoindolin-2-yl)-3,6-dimethyl-4-oxo-3,4-dihydroquinazolin-8-yl)ethyl)amino)-5-methyl-N-(methylsulfonyl) picolinamide] | 1000 to 5000 nM | ≥ 5000 nM | ≥ 1000 nM | ≥ 1000 nM
4 | Cc1cc([C@@H](C)Nc2ccc(Cl)nc2C(=O)NS(C)(=O)=O)c2nc(N3CCO[C@@H](C)C3)n(C)c(=O)c2c1 [Compound 36, 6-chloro-3-(((R)-1-(3,6-dimethyl-2-((S)-2-methylmorpholino)-4-oxo-3,4-dihydroquinazolin-8-yl)ethyl)amino)-N-(methylsulfonyl) picolinamide] | 250 to 500 nM | 1000 to 5000 nM | ≥ 1000 nM | ≥ 1000 nM
5 | C[C@@H](Nc1ccc(Cl)nc1C(=O)NS(C)(=O)=O)c1cccc2c(=O)n(C)c(N3Cc4cnn(C)c4C3)nc12 [Compound 38, (R)-6-chloro-3-((1-(3-methyl-2-(1-methyl-4,6-dihydropyrrolo[3,4-c]pyrazol-5(1H)-yl)-4-oxo-3,4-dihydroquinazolin-8-yl)ethyl)amino)-N-(methylsulfonyl) picolinamide] | 250 to 500 nM | 1000 to 5000 nM | ≥ 1000 nM | 500 to 1000 nM
6 | Cc1cc([C@@H](C)Nc2ccc(Cl)nc2C(=O)NS(C)(=O)=O)c2nc(N(C)C)n(C)c(=O)c2c1 [Compound 40, (R)-6-chloro-3-((1-(2-(dimethylamino)-3,6-dimethyl-4-oxo-3,4-dihydroquinazolin-8-yl)ethyl)amino)-N-(methylsulfonyl) picolinamide] | 250 to 500 nM | 1000 to 5000 nM | ≥ 1000 nM | ≥ 1000 nM
7 | Cc1cc([C@@H](C)Nc2ccc(Cl)nc2C(=O)NS(C)(=O)=O)c2nc(N3CC4(COC4)C3)n(C)c(=O)c2c1 [Compound 46, (R)-6-chloro-3-((1-(3,6-dimethyl-4-oxo-2-(2-oxa-6-azaspiro[3.3]heptan-6-yl)-3,4-dihydroquinazolin-8-yl)ethyl)amino)-N-(methylsulfonyl) picolinamide] | 500 to 1000 nM | 1000 to 5000 nM | ≥ 1000 nM | ≥ 1000 nM
8 | Cc1cc([C@@H](C)Nc2ccc(Cl)nc2C(=O)NS(C)(=O)=O)c2nc(OCc3ccccc3)n(C)c(=O)c2c1 [Compound 50, (R)-3-((1-(2-(benzyloxy)-3,6-dimethyl-4-oxo-3,4-dihydroquinazolin-8-yl)ethyl)amino)-6-chloro-N-(methylsulfonyl) picolinamide] | 1000 to 5000 nM | 1000 to 5000 nM | ≥ 1000 nM | 250 to 500 nM
9 | Cc1cc([C@@H](C)Nc2ccc(Cl)nc2C(=O)NS(C)(=O)=O)c2nc(OC3CCC3)n(C)c(=O)c2c1 [Compound 52, (R)-6-chloro-3-((1-(2-cyclobutoxy-3,6-dimethyl-4-oxo-3,4-dihydroquinazolin-8-yl)ethyl)amino)-N-(methylsulfonyl) picolinamide] | 500 to 1000 nM | 1000 to 5000 nM | ≥ 1000 nM | 100 to 250 nM

Further lines, results first:

Row | IC50 [1] | IC50 [2] | IC50 (PI3Kα) | IC50 (PI3Kα H1047R) | Compound
10 | < 250 nM | 500 to 1000 nM | ≥ 1000 nM | 250 to 500 nM | C[C@@H](Nc1ccc(Cl)nc1C(=O)NS(C)(=O)=O)c1cc(F)cc2c(=O)n(C)c(N3Cc4cn(C)nc4C3)nc12 [Compound 37, (R)-6-chloro-3-((1-(6-fluoro-3-methyl-2-(2-methyl-2,6-dihydropyrrolo[3,4-c]pyrazol-5(4H)-yl)-4-oxo-3,4-dihydroquinazolin-8-yl)ethyl)amino)-N-(methylsulfonyl) picolinamide]
11 | < 250 nM | 1000 to 5000 nM | ≥ 1000 nM | 500 to 1000 nM | C[C@@H](Nc1ccc(Cl)nc1C(=O)NS(C)(=O)=O)c1cccc2c(=O)n(C)c(N3CCC(F)(F)CC3)nc12 [Compound 39, (R)-6-chloro-3-((1-(2-(4,4-difluoropiperidin-1-yl)-3-methyl-4-oxo-3,4-dihydroquinazolin-8-yl)ethyl)amino)-N-(methylsulfonyl) picolinamide]
12 | < 250 nM | 1000 to 5000 nM | ≥ 1000 nM | 100 to 250 nM | CCn1cc2c(n1)CN(c1nc3c([C@@H](C)Nc4ccc(Cl)nc4C(=O)NS(C)(=O)=O)cc(C)cc3c(=O)n1C)C2 [Compound 44, (R)-6-chloro-3-((1-(2-(2-ethyl-2,6-dihydropyrrolo[3,4-c]pyrazol-5(4H)-yl)-3,6-dimethyl-4-oxo-3,4-dihydroquinazolin-8-yl)ethyl)amino)-N-(methylsulfonyl) picolinamide]
13 | < 250 nM | 1000 to 5000 nM | 500 to 1000 nM | 100 to 250 nM | CCn1ncc2c1CN(c1nc3c([C@@H](C)Nc4ccc(Cl)nc4C(=O)NS(C)(=O)=O)cc(C)cc3c(=O)n1C)C2 [Compound 45, (R)-6-chloro-3-((1-(2-(1-ethyl-4,6-dihydropyrrolo[3,4-c]pyrazol-5(1H)-yl)-3,6-dimethyl-4-oxo-3,4-dihydroquinazolin-8-yl)ethyl)amino)-N-(methylsulfonyl) picolinamide]
14 | < 250 nM | 1000 to 5000 nM | 500 to 1000 nM | < 100 nM | Cc1cc([C@@H](C)Nc2ccc(Cl)nc2C(=O)NS(C)(=O)=O)c2nc(N3Cc4cnn(CC5CC5)c4C3)n(C)c(=O)c2c1 [Compound 47, (R)-6-chloro-3-((1-(2-(1-(cyclopropylmethyl)-4,6-dihydropyrrolo[3,4-c]pyrazol-5(1H)-yl)-3,6-dimethyl-4-oxo-3,4-dihydroquinazolin-8-yl)ethyl)amino)-N-(methylsulfonyl) picolinamide]
15 | < 250 nM | 1000 to 5000 nM | ≥ 1000 nM | 100 to 250 nM | Cc1cc([C@@H](C)Nc2ccc(Cl)nc2C(=O)NS(C)(=O)=O)c2nc(N(C)Cc3cnn(C)c3)n(C)c(=O)c2c1 [Compound 48, (R)-6-chloro-3-((1-(3,6-dimethyl-2-(methyl((1-methyl-1H-pyrazol-4-yl)methyl)amino)-4-oxo-3,4-dihydroquinazolin-8-yl)ethyl)amino)-N-(methylsulfonyl) picolinamide]
16 | < 250 nM | 1000 to 5000 nM | ≥ 1000 nM | 100 to 250 nM | Cc1cc([C@@H](C)Nc2ccc(Cl)nc2C(=O)NS(C)(=O)=O)c2nc(N3Cc4cnn(C(C)C)c4C3)n(C)c(=O)c2c1 [Compound 49, (R)-6-chloro-3-((1-(2-(1-isopropyl-4,6-dihydropyrrolo[3,4-c]pyrazol-5(1H)-yl)-3,6-dimethyl-4-oxo-3,4-dihydroquinazolin-8-yl)ethyl)amino)-N-(methylsulfonyl) picolinamide]
17 | < 250 nM | 500 to 1000 nM | ≥ 1000 nM | < 100 nM | Cc1cc([C@@H](C)Nc2ccc(Cl)nc2C(=O)NS(C)(=O)=O)c2nc(OCC3CC3)n(C)c(=O)c2c1 [Compound 51, (R)-6-chloro-3-((1-(2-(cyclopropylmethoxy)-3,6-dimethyl-4-oxo-3,4-dihydroquinazolin-8-yl)ethyl)amino)-N-(methylsulfonyl) picolinamide]
18 | < 250 nM | 1000 to 5000 nM | ≥ 1000 nM | 100 to 250 nM | Cc1cc([C@@H](C)Nc2ccc(Cl)nc2C(=O)NS(C)(=O)=O)c2nc(N3Cc4cnn(CC(F)(F)F)c4C3)n(C)c(=O)c2c1 [Compound 53, (R)-6-chloro-3-((1-(3,6-dimethyl-4-oxo-2-(1-(2,2,2-trifluoroethyl)-4,6-dihydropyrrolo[3,4-c]pyrazol-5(1H)-yl)-3,4-dihydroquinazolin-8-yl)ethyl)amino)-N-(methylsulfonyl) picolinamide]
19 | < 250 nM | 1000 to 5000 nM | ≥ 1000 nM | 100 to 250 nM | Cc1cc([C@@H](C)Nc2ccc(Cl)nc2C(=O)NS(C)(=O)=O)c2nc(N3Cc4cn(CC(F)(F)F)nc4C3)n(C)c(=O)c2c1 [Compound 54, (R)-6-chloro-3-((1-(3,6-dimethyl-4-oxo-2-(2-(2,2,2-trifluoroethyl)-2,6-dihydropyrrolo[3,4-c]pyrazol-5(4H)-yl)-3,4-dihydroquinazolin-8-yl)ethyl)amino)-N-(methylsulfonyl) picolinamide]
